Consider 36 compounds from patent US10023592B2, “Bromodomain inhibitors” (Celgene Quanticel Research, Inc., priority 2013, dated 2018).

One assay has as its target BRD4(BD1) (Homo sapiens (Human), UniProt O60885). Description: In vitro enzyme inhibition assay (BRD4 AlphaScreen). The assay is classed as binding. The method, boiled down:
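AlphaScreen proximity readout, using streptavidin donor and Ni-chelate acceptor beads at 5 μg/mL final, monitors biotin-H4 tetraacetylated peptide interaction with purified His-tagged BRD4.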

Assay [1] has as its system Raji, human Burkitts lymphoma cells. Description: Cell-MTS proliferation assay, Raji. The following applies: Homo sapiens; Cell-MTS proliferation, Raji cells, 168 hr. The assay is classed as cell-based. The protocol:
The Cell-MTS assay is a 7-day plate-based colorimetric assay which quantifies the amount of newly generated NADH in the presence or absence of test compound. The NADH level is used for the quantification of cancer cell proliferation.
Established cancer cell lines with a variety of driving mutations were obtained from American Type Culture Collection (ATCC) and routinely passaged according to ATCC protocols. For routine assay, these cells were seeded at densities which enabled ˜90% confluence after 7 days of culture. Raji, human Burkitts lymphoma cells, (cMYC) were seeded at 15,000 cells per 96-well. HL-60, human proleukemia cells, (NRAS, p16, p53, c-Myc amplified) were seeded at 5,000 cells per 96-well. NCI-H460, human non-small cell lung cancer cells, (KRAS, PIK3CA, STLK11, p16) were seeded at 3,000 cells per 96-well. 24 hr after plating, cells received an 11-point dilution of test compound with final concentration ranges from 100 μM to 2.0 nM. […] At the end of this incubation period, 80 μL of media is removed and 20 μL of CellTiter 96® AQueous Non-Radioactive Cell Proliferation Assay soln (Promega) was added. The cells were incubated until the OD490 was >0.6. IC50 values were calculated using the IDBS XLfit software package and include background subtracted OD490 values and normalization to DMSO controls. Cellular proliferation IC50 values were uploaded and archived using the Chem Biography Platform.

The mark [2] stands for this setting: in vitro enzyme inhibition assay.

Usually IC50 stands for the concentration that gives 50% inhibition. Low values mean inhibition by little substance, high ones a need for much substance.

Counter-ions that a name gives are not always drawn. Like-named read-outs stand apart in the source and are kept apart here.

With `CCCCc1cnc(NS(=O)(=O)CC)nc1-c1cc(C)c(=O)n(C(C)C)c1` [Example 511, N-[5-butyl-4-(5-methyl-6-oxo-1-propan-2-ylpyridin-3-yl)pyrimidin-2-yl] ethanesulfonamide], the 50% inhibitory concentration (IC50) (at BRD4(BD1) (setting [2]); in assay [1]) was below 500 nM throughout.
In the case of `Cc1cc(-c2cc(CS(C)(=O)=O)ccc2Oc2ccc(F)cc2F)cn(CCO)c1=O` [Example 406, 5-[2-(2,4-difluorophenoxy)-5-(methylsulfonylmethyl)phenyl]-1-(2-hydroxyethyl)-3-methylpyridin-2-one], at BRD4(BD1) (setting [2]), the IC50 is below 500 nM.
Same read-out and setting: in the case of `CCCCc1cnc(S(C)(=O)=O)nc1-c1cc(C)c(=O)n(C(C)C)c1` [Example 508, 5-(5-butyl-2-methylsulfonylpyrimidin-4-yl)-3-methyl-1-propan-2-ylpyridin-2-one] it was below 500 nM; in that of `COc1ccc(COc2cc(-c3cc(C)c(=O)n(C)c3)cc(S(C)(=O)=O)c2)cc1` [Example 323, 5-[3-[(4-methoxyphenyl)methoxy]-5-methylsulfonylphenyl]-1,3-dimethylpyridin-2-one], below 500 nM.
Same read-out and setting: then `Cc1cc(-c2cc(OCc3cccnc3)cc(S(C)(=O)=O)c2)cn(C)c1=O` [Example 338, 1,3-dimethyl-5-[3-methylsulfonyl-5-(pyridin-3-ylmethoxy)phenyl]pyridin-2-one], with below 500 nM; and `CC(=O)Nc1nc(-c2cccc(NS(C)(=O)=O)c2)cn(C)c1=O` [Example 478, N-[6-[3-(methanesulfonamido)phenyl]-4-methyl-3-oxopyrazin-2-yl]acetamide], with above 5000 nM.
At BRD4(BD1) (class symbols A/B/C), `COc1ccc(-c2cn(C)c(=O)c3ccccc23)cc1S(N)(=O)=O` [Example 16, 2-methoxy-5-(2-methyl-1-oxoisoquinolin-4-yl) benzenesulfonamide] displayed an IC50 of 500 to 5000 nM.
Compound `CCS(=O)(=O)Nc1ccc(Oc2ccc(F)cc2F)c(-c2cn(C)c(=O)c3c2CCC3)c1` [Example 507, N-[4-(2,4-difluorophenoxy)-3-(2-methyl-1-oxo-6,7-dihydro-5H-cyclopenta[c]pyridin-4-yl)phenyl]ethanesulfonamide] showed a 50% inhibitory concentration (IC50) against BRD4(BD1) (setting [2]) below 500 nM.
`CCS(=O)(=O)c1cccc(-c2cn(C)c(=O)c(N)n2)c1` [Example 105, 3-amino-5-(3-ethylsulfonylphenyl)-1-methylpyrazin-2-one] yielded a half-inhibitory concentration (IC50) at BRD4(BD1) (class symbols A/B/C) above 5000 nM.
On BRD4(BD1) (setting [2]), `CCS(=O)(=O)Cc1ccc(OCC(F)(F)F)c(-c2cc(C)c(=O)n(C)c2)c1` [Example 411, 5-[5-(ethylsulfonylmethyl)-2-(2,2,2-trifluoroethoxy)phenyl]-1,3-dimethylpyridin-2-one] showed a concentration for half-maximal inhibition (IC50) below 500 nM.
Regarding `Cc1cc(-c2cc(S(C)(=O)=O)cc3c2OCCO3)cn(C)c1=O` [Example 489, 1,3-dimethyl-5-(7-methylsulfonyl-2,3-dihydro-1,4-benzodioxin-5-yl)pyridin-2-one], the IC50 on BRD4(BD1) (setting [2]) fell in the range of 500 to 5000 nM.
Still for that read-out and setting: in the case of `CCC1CCc2cc(NS(=O)(=O)CC)cc(-c3cc(C)c(=O)n(C)c3)c2O1` (stereo not shown) [Example 492, N-[8-(1,5-dimethyl-6-oxopyridin-3-yl)-2-ethyl-3,4-dihydro-2H-chromen-6-yl] ethanesulfonamide] it was below 500 nM.
For the compound `Cn1cc(-c2ccn[nH]2)c2ccccc2c1=O` [Example 68, 2-methyl-4-(1H-pyrazol-5-yl)isoquinolin-1-one], the IC50 against BRD4(BD1) (class symbols A/B/C) is above 5000 nM.
For `CCS(=O)(=O)c1ccc(NCC2CC2)c(-c2cn(C)c(=O)cc2C)c1` [Example 423, 5-[2-(cyclopropylmethylamino)-5-ethylsulfonylphenyl]-1,4-dimethylpyridin-2-one], the half-maximal inhibitory concentration (IC50) against BRD4(BD1) (setting [2]) was 500 to 5000 nM.
Take `CCS(=O)(=O)c1cccc(-c2cn(C)c(=O)c3cncn23)c1` [Example 133, 5-(3-ethylsulfonylphenyl)-7-methylimidazo[1,5-a]pyrazin-8-one]: the half-maximal inhibitory concentration (IC50) against BRD4(BD1) (class symbols A/B/C) was above 5000 nM.
Turning to `Cn1cc(-c2ccc3c(c2)NCCO3)c2ccccc2c1=O` [Example 19, 4-(3,4-dihydro-2H-1,4-benzoxazin-6-yl)-2-methylisoquinolin-1-one], the half-inhibitory concentration (IC50) against BRD4(BD1) (class symbols A/B/C) was in the range of 500 to 5000 nM.
Consider `Cn1cc(-c2nc(N3CCCS3(=O)=O)ncc2OCC2CC2)c2ccccc2c1=O` [Example 156, 4-[5-(cyclopropylmethoxy)-2-(1,1-dioxo-1,2-thiazolidin-2-yl)pyrimidin-4-yl]-2-methylisoquinolin-1-one], for which the IC50 against BRD4(BD1) (setting [2]) is below 500 nM.
On BRD4(BD1) (setting [2]), `Cc1cc(-c2cc(S(C)(=O)=O)ccc2OCC2CC2)cn(C2CCC2)c1=O` [Example 483, 1-cyclobutyl-5-[2-(cyclopropylmethoxy)-5-methylsulfonylphenyl]-3-methylpyridin-2-one] displayed an IC50 below 500 nM.
The same measure, in the same setting: in the case of `CCCCn1cc(-c2nc(NS(=O)(=O)CC)ncc2Oc2ccc(F)cc2F)cc(C)c1=O` [Example 297, N-[4-(1-butyl-5-methyl-6-oxopyridin-3-yl)-5-(2,4-difluorophenoxy)pyrimidin-2-yl]ethanesulfonamide] it was below 500 nM.
Turning to `COc1cccc(-c2cn(C)c(=O)c3ccccc23)c1` [Example 1, 4-(3-methoxyphenyl)-2-methylisoquinolin-1-one], the IC50 against BRD4(BD1) (class symbols A/B/C) is 500 to 5000 nM.
In the case of `Cn1cc(-c2ccc(F)c(N)c2)c2ccccc2c1=O` [Example 26, 4-(3-amino-4-fluorophenyl)-2-methylisoquinolin-1-one hydrochloride], the IC50 against BRD4(BD1) (class symbols A/B/C) was in the range of 500 to 5000 nM.
Still for that read-out and setting: then `CNc1cccc(-c2cn(C)c(=O)c3ccccc23)c1` [Example 32, 2-methyl-4-[3-(methylamino)phenyl]isoquinolin-1-one Hydrochloride], with 500 to 5000 nM; and `Cc1cc(=O)n(C)nc1-c1cc(S(C)(=O)=O)ccc1OCC1CC1` [Example 137, 6-[2-(cyclopropylmethoxy)-5-methylsulfonylphenyl]-2,5-dimethylpyridazin-3-one], with 500 to 5000 nM.
Turning to `CCS(=O)(=O)Nc1cc(-c2ccc(=O)n(C)c2)c(-c2ccccc2C)s1` [Example 432, N-[4-(1-methyl-6-oxopyridin-3-yl)-5-(2-methylphenyl)thiophen-2-yl]ethanesulfonamide], the IC50 against BRD4(BD1) (setting [2]) was above 5000 nM.
Still for that read-out and setting: then `Cc1cc(-c2cc(NS(C)(=O)=O)ccc2Oc2ccc(F)cc2F)cn(C2CCC2)c1=O` [Example 484, N-[3-(1-cyclobutyl-5-methyl-6-oxopyridin-3-yl)-4-(2,4-difluorophenoxy)phenyl]methanesulfonamide], with below 500 nM.
Turning to `CCS(=O)(=O)Nc1cccc(-c2cn(C)c(=O)c3ccc(-c4ccccc4)cc23)c1` [Example 73, N-[3-(2-methyl-1-oxo-6-phenylisoquinolin-4-yl)phenyl]ethanesulfonamide], on BRD4(BD1) (class symbols A/B/C), the IC50 was 500 to 5000 nM.
At BRD4(BD1) (setting [2]), `CCS(=O)(=O)c1ccc(NCC2CC2)c(-c2cc(OC)c(=O)n(C)c2)c1` [Example 414, 5-[2-(cyclopropylmethylamino)-5-ethylsulfonylphenyl]-3-methoxy-1-methylpyridin-2-one] gave a concentration for half-maximal inhibition (IC50) below 500 nM.
On BRD4(BD1) (setting [2]), `CCC1CCc2cc(NS(=O)(=O)CC)cc(-c3cn(C)c(=O)c4ccccc34)c2O1` (stereo not shown) [Example 491, N-[2-ethyl-8-(2-methyl-1-oxoisoquinolin-4-yl)-3,4-dihydro-2H-chromen-6-yl]ethanesulfonamide] came in with an IC50 below 500 nM.
At BRD4(BD1) (class symbols A/B/C), `Cn1cc(-c2cccc(S(C)(=O)=O)c2)cc(N)c1=O` [Example 107, 3-amino-1-methyl-5-(3-methylsulfonylphenyl)pyridin-2-one] yielded an IC50 above 5000 nM.
Same read-out and setting: then `COc1ccc(-c2cn(C)c(=O)c(N)n2)cc1NS(C)(=O)=O` [Example 106, N-[5-(6-amino-4-methyl-5-oxopyrazin-2-yl)-2-methoxyphenyl]methanesulfonamide], with above 5000 nM.
On to `CCCCc1cnc(S(C)(=O)=O)nc1-c1cc(C)c(=O)n(C)c1` [Example 305, 5-(5-butyl-2-methylsulfonylpyrimidin-4-yl)-1,3-dimethylpyridin-2-one], for which the IC50 against BRD4(BD1) (setting [2]) is below 500 nM.
Regarding `CCCCc1ccc(S(C)(=O)=O)cc1-c1cn(C)c(=O)c2ccccc12` [Example 318, 4-(2-butyl-5-methylsulfonylphenyl)-2-methylisoquinolin-1-one], the IC50 at BRD4(BD1) (setting [2]) is below 500 nM.
With `CCCCn1cc(-c2nc(NS(C)(=O)=O)ncc2Oc2ccc(F)cc2F)cc(C)c1=O` [Example 296, N-[4-(1-butyl-5-methyl-6-oxopyridin-3-yl)-5-(2,4-difluorophenoxy)pyrimidin-2-yl]methanesulfonamide], the IC50 at BRD4(BD1) (setting [2]) is below 500 nM.
Compound `Cn1cc(-c2ccccc2F)c2ccccc2c1=O` [Example 3, 4-(2-fluorophenyl)-2-methylisoquinolin-1-one] returned an IC50 on BRD4(BD1) (class symbols A/B/C) above 5000 nM.
In the case of “8-[2-(cyclopropylmethoxy)-5-ethylsulfonylphenyl]-6-methyl-3,4,4a,8a-tetrahydro-2H-pyrido[4,3-b][1,4]oxazin-5-one [Example 366]”, at BRD4(BD1), the IC50 is below 500 nM.
For the compound `CCS(=O)(=O)c1ccc(OCC2CC2)c(-c2cn(C)c(=O)c3c2CCC3)c1` [Example 505, 4-[2-(cyclopropylmethoxy)-5-ethylsulfonylphenyl]-2-methyl-6,7-dihydro-5H-cyclopenta[c]pyridin-1-one], the concentration for half-maximal inhibition (IC50) at BRD4(BD1) (setting [2]) was below 500 nM.
